Source: ChEMBL document CHEMBL1201862, “PubChem BioAssay data set” (2004)
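Briefly, cells in 96-well plates were exposed to five compound concentrations for 48 h, and endpoints were estimated by linear interpolation. At the GI50, growth is halved.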 The source made the active and inactive calls. Cut-off read from the data, not from the text of the source: active = GI50 up to about 1.1 µM and inactive = higher.

Key:
Experiment in all cases: NCI tumour cell line growth inhibition, 48 h
[1] = tested on: A549
[2] = tested on: HCC 2998
[3] = tested on: SK-OV-3
[4] = tested on: Malme-3M
[5] = tested on: SK-MEL-5
[6] = tested on: MDA-MB-435
[7] = tested on: SNB-19
[8] = tested on: SK-MEL-28
[9] = tested on: EKVX
[10] = tested on: MOLT-4
[11] = tested on: NCI-H226
[12] = tested on: MDA-N
[13] = tested on: 786-0
[14] = tested on: U-251
[15] = tested on: A498
[16] = tested on: SK-MEL-2
[17] = tested on: SF-268
[18] = tested on: SN12C
[19] = tested on: NCI/ADR-RES
[20] = tested on: HCT-15

| Compound | GI50 [1] | GI50 [2] | GI50 [3] | GI50 [4] | GI50 [5] | GI50 [6] | GI50 [7] | GI50 [8] | GI50 [9] | GI50 [10] | GI50 [11] | GI50 [12] | GI50 [13] | GI50 [14] | GI50 [15] | GI50 [16] | GI50 [17] | GI50 [18] | GI50 [19] | GI50 [20] |
| --- | --- | --- | --- | --- | --- | --- | --- | --- | --- | --- | --- | --- | --- | --- | --- | --- | --- | --- | --- | --- |
| COc1cc(N(C)C)c(OC)cc1C=C1C=CC=C1 | > 100 µM (inactive) | > 100 µM (inactive) | > 100 µM (inactive) | > 100 µM (inactive) | > 100 µM (inactive) | 43.1 µM (inactive) | > 100 µM (inactive) | > 100 µM (inactive) | > 100 µM (inactive) | 38.6 µM (inactive) | > 100 µM (inactive) | 44.1 µM (inactive) | > 100 µM (inactive) | > 100 µM (inactive) | > 100 µM (inactive) | > 100 µM (inactive) | > 100 µM (inactive) | > 100 µM (inactive) | 74.6 µM (inactive) | > 10 µM |
| Cn1cnc2c(sc3nc4ccccc4n32)c1=N | > 100 µM (inactive) | 17.6 µM (inactive) | > 100 µM (inactive) | > 100 µM (inactive) | > 100 µM (inactive) | > 100 µM (inactive) | > 100 µM (inactive) | > 100 µM (inactive) | 52.2 µM (inactive) | > 100 µM (inactive) | > 100 µM (inactive) | > 100 µM (inactive) | > 100 µM (inactive) | > 100 µM (inactive) | > 100 µM (inactive) | > 100 µM (inactive) | > 100 µM (inactive) |  | > 100 µM (inactive) | > 100 µM |
| CCOC(=O)Nc1ccc2c(c1)c(CCCCCCc1nc3ccccc3c3ccc(NC(=O)OCC)cc13)nc1ccccc12 | 70 µM (inactive) | > 100 µM (inactive) | 31.8 µM (inactive) | > 10 µM (inactive) | 78.9 µM (inactive) | 59.7 µM (inactive) | 30.1 µM (inactive) | 52.6 µM (inactive) | < 0.01 µM (active) | > 100 µM (inactive) | 23.9 µM (inactive) | 61.2 µM (inactive) | 18.4 µM (inactive) |  | 31.3 µM (inactive) | 29.9 µM (inactive) | 26.5 µM (inactive) | 40.6 µM (inactive) | 41.2 µM (inactive) | > 100 µM |
| COC(=O)/N=[N+](\[O-])C(c1ccc(OC)cc1)C1CCCCC1 (stereo not drawn) | 5.07 µM (inactive) | 2.12 µM (inactive) | 3.67 µM (inactive) | 2.02 µM (inactive) | 2.08 µM (inactive) | 5.01 µM (inactive) | 9.53 µM (inactive) | 13.6 µM (inactive) | 0.991 µM (active) | 2.87 µM (inactive) | 5.16 µM (inactive) | 2.03 µM (inactive) | 3.82 µM (inactive) | 1.03 µM (active) | 6.67 µM (inactive) | 13.3 µM (inactive) | 4.23 µM (inactive) | 1.8 µM (inactive) | 2.11 µM (inactive) | 1.26 µM |
| CC(C)=CCC(O)[C@](C)(O)[C@H]1[C@H](O)C[C@@]2(C)[C@@H]3CCc4cc(O)c(OC5OC(CO)C(O)C(O)C5O)cc4C3(C)C(=O)C[C@]12C (stereo partly drawn) | > 100 µM (inactive) | > 100 µM (inactive) | > 100 µM (inactive) | > 100 µM (inactive) | > 100 µM (inactive) | > 100 µM (inactive) | > 100 µM (inactive) | > 100 µM (inactive) | > 100 µM (inactive) | > 100 µM (inactive) | > 100 µM (inactive) | > 100 µM (inactive) | > 100 µM (inactive) | > 100 µM (inactive) | > 100 µM (inactive) | > 100 µM (inactive) | > 100 µM (inactive) | > 100 µM (inactive) | > 100 µM (inactive) | > 100 µM |
| CC(CCOc1ccc2ccc(=O)oc2c1)C1=CC(=O)C(C)(C)O1 (stereo not drawn) | 2.87 µM (inactive) | 2.67 µM (inactive) | 3.53 µM (inactive) | 3.04 µM (inactive) | 5.13 µM (inactive) | 2.56 µM (inactive) | 3.09 µM (inactive) | 2.9 µM (inactive) | 2.68 µM (inactive) | 2.12 µM (inactive) | 7.35 µM (inactive) | 2.77 µM (inactive) | 2.2 µM (inactive) | 2.69 µM (inactive) | 1.95 µM (inactive) | 3.37 µM (inactive) | 1.71 µM (inactive) | 1.67 µM (inactive) | 2.12 µM (inactive) | 1.71 µM |
| CC(=O)OCC1C(=O)OCC1C(=O)N1Cc2cc3ccccc3nc2C1 (stereo not drawn) | 15.3 µM (inactive) | 10.4 µM (inactive) | 16.7 µM (inactive) | 1.46 µM (inactive) | 10.2 µM (inactive) | 2.42 µM (inactive) | 17.7 µM (inactive) | 2.55 µM (inactive) | 8.05 µM (inactive) | 1.44 µM (inactive) | 5.96 µM (inactive) | 2.75 µM (inactive) | 1.58 µM (inactive) | 11.3 µM (inactive) | 5.08 µM (inactive) | 8.15 µM (inactive) | 7.41 µM (inactive) | 5.27 µM (inactive) | 0.69 µM (active) | 1.95 µM |
